Source: PMC6278366, “Synthesis and Evaluation of Anticancer Activities of Novel C-28 Guanidine-Functionalized Triterpene Acid Derivatives” (Molecules, 2018)
Structures can show the parent of a compound that is named as a salt. Where two headings read alike, the source gives them in different places.

What was measured:
[1] = test system: U937 (histiocytic lymphoma) cells; experiment: Cytotoxicity assay (7-AAD viability, flow cytometry), U937; assay type: cell-based, human; details: at least three experiments in duplicate, viable cells, read-out: IC50 U937
Description: (§1) Cells (Jurkat, K562, U937, HeLa, HEK293 and normal Fibroblasts) were purchased from Russian Cell Culture Collection (Institute of Cytology of the Russian Academy of Sciences, Saint Petersburg, Russia) and cultured according to standard mammalian tissue culture protocols and sterile technique. Human cell lines HEK293 and HeLa were obtained from the HPA Culture Collections (Salisbury, UK). All cell lines used in the study were tested and shown to be free of mycoplasma and viral contamination.
(§2) Cells were maintained in RPMI 1640 (Jurkat, K562, U937) (Gibco, Thermo Fisher Scientific, Waltham, MA, USA) supplemented with 4 mM glutamine, 10% FBS (Sigma, Burlington, MA, USA) and 100 units/mL penicillin-streptomycin (Sigma). All types of cells were grown in an atmosphere of 5% CO2 at 37 °C. The cells were subcultures at 2–3 days intervals. Adherent cells (HEK293, HeLa, fibroblasts) were suspended using trypsin/EDTA and counted after they have reached 80% confluency. Cells were then seeded in 24 well plates at 5 × 10^4 cells per well and incubated overnight. Jurkat, K562, U937 cells were subcultured at 2 day intervals with a seeding density of 1 × 10^5 cells per 24 well plates in RPMI with 10% FBS.
(§3) Viability (Live/dead) assessment was performed by staining cells with 7-AAD (7-Aminoactinomycin D) (Biolegend, San Diego, CA, USA). Cells were treated of test compounds with six different concentrations (1, 5, 10, 15, 30 and 60 μM). After treatment, cells were harvested, washed 1–2 times with phosphate-buffered saline (PBS) and centrifuged at 400× g for 5 min. Cell pellets were resuspended in 200 μL of flow cytometry staining buffer (PBS without Ca^2+ and Mg^2+, 2.5% FBS) and stained with 5 μL of 7-AAD staining solutionfor 15 min at room temperature in the dark. Samples were acquired on NovoCyteTM 2000 FlowCytometry System (ACEA, San Diego, CA, USA) equipped with 488 nm argon laser. Detection of 7-AAD emission was collected through a 675/30 nm filter in FL4 channel.

Jurkat cells = experiment: Annexin V/7-AAD apoptosis assay by flow cytometry; assay type: cell-based, human; details: 48 h; for early apoptotic cells (Q7-4) / late apoptotic cells (Q7-2) / necrotic cells (Q7-1) / living (vital) cells (Q7-3): at IC50 concentration (59 μM Dihydro BA; 4 μM 15, 15c, 18c; 8 μM 20c); for total number of apoptotic cells (early + late): at IC50 concentration (59 μM Dihydro BA; 4 μM 15c; 8 μM 20c)
Description: Apoptosis was determined by flow cytometric analysis of Annexin V and 7-aminoactinomycin D staining. Briefly, 200 μL of Guava Nexin reagent (Millipore, Bedford, MA, USA) was added to 5 × 10^5 cells in 200 μL, and the cells were incubated with the reagent for 20 min at room temperature in the dark. […] At the end of incubation, the cells were analyzed on NovoCyteTM 2000 FlowCytometry System (ACEA). Different states of cell death were defined as follows: normal cells are localized in the lower-left quadrant (Annexin V^−/PI^−); early apoptotic cells are in the lower-right quadrant (Annexin V^+/PI^−); late apoptotic cells and necrotic cells are in the upper-right quadrant (Annexin V^+/PI^+); and necrotic cells are in the upper-left quadrant (Annexin V^−/PI^+).
Figure 2 AnnexinV/7-AAD staining upon induction of apoptosis in Jurkat cells. […] Then, the cells were harvested, stained with Annexin V/7-AAD and analyzed by flow cytometry. The experiments were performed three times, and the results of the representative experiments are shown. The first cytogram represents an untreated cell sample (A); after incubation with dihydrobetulinic acid for 24 h (B) and for 48 h (C); after incubation with compound 15 for 24 h (D) and for 48 h (E); after incubation with compound 15c for 24 h (F) and for 48 h (G); after incubation with compound 18c for 24 h (H) and for 48 h (I); after incubation with compound 20c for 24 h (J) and for 48 h (K). Q7-1, necrotic cells; Q7-2, late apoptotic cells; Q7-3, living cells; Q7-4, early apoptotic cells. TEXT PRINTED IN THE PICTURE: (B) Dihydro BA: Q7-1 0.96% (59 μM); Q7-2 12.11% (59 μM); Q7-3 80.09% (59 μM); Q7-4 6.84% (59 μM) | (C) Dihydro BA: Q7-1 2.34% (59 μM); Q7-2 20.53% (59 μM); Q7-3 73.11% (59 μM); Q7-4 4.02% (59 μM) | (D) Compound 15: Q7-1 3.08% (4 μM); Q7-2 2.24% (4 μM); Q7-3 92.34% (4 μM); Q7-4 2.34% (4 μM) | (E) Compound 15: Q7-1 5.53% (4 μM); Q7-2 91.79% (4 μM); Q7-3 0.58% (4 μM); Q7-4 2.10% (4 μM) | (F) Compound 15c: Q7-1 1.51% (4 μM); Q7-2 2.64% (4 μM); Q7-3 84.92% (4 μM); Q7-4 10.93% (4 μM) | (G) Compound 15c: Q7-1 21.72% (4 μM); Q7-2 16.54% (4 μM); Q7-3 54.49% (4 μM); Q7-4 7.25% (4 μM) | (H) Compound 18c: Q7-1 1.48% (4 μM); Q7-2 3.70% (4 μM); Q7-3 91.14% (4 μM); Q7-4 3.67% (4 μM) | (I) Compound 18c: Q7-1 20.73% (4 μM); Q7-2 14.32% (4 μM); Q7-3 58.16% (4 μM); Q7-4 6.79% (4 μM) | (J) Compound 20c: Q7-1 3.78% (8 μM); Q7-2 1.72% (8 μM); Q7-3 92.26% (8 μM); Q7-4 2.24% (8 μM) | (K) Compound 20c: Q7-1 6.09% (8 μM); Q7-2 7.35% (8 μM); Q7-3 78.36% (8 μM); Q7-4 8.20% (8 μM) DOUBTS OF THE COPYIST ABOUT THIS PICTURE: Panel A (Control, untreated cells: Q7-1 3.75%, Q7-2 0.00%, Q7-3 96.24%, Q7-4 0.01%) left out of lines because it is not a substance / Dihydro BA panel B, Q7-3: 80.09% partly overlaid by plot points, 80.09 or 80.03 / Dihydro BA panel C, Q7-3: 73.11% partly overlaid by plot points / Compound 18c panel I, Q7-3: 58.16% small print, 58.16 or 58.18 / Compound 15 panel E, Q7-3: 0.58% small print, 0.58 or 0.56

[2] = test system: K562 (chronic myeloid leukemia) cells; experiment: Cytotoxicity assay (7-AAD viability, flow cytometry), K562; assay type: cell-based, human; details: at least three experiments in duplicate, viable cells, read-out: IC50 K562
Description: as §1, §2, §3

[3] = test system: Jurkat (T-lymphoblastic leukemia) cells; experiment: cells; assay type: cell-based; details: mean ± SE, at least three experiments in duplicate, viable cells, read-out: IC50 Jurkat
Description: as §1, §2, §3

[4] = test system: HEK293 (embryonic kidney) cells; experiment: Cytotoxicity assay (7-AAD viability, flow cytometry), HEK293; assay type: cell-based, human; details: at least three experiments in duplicate, viable cells
Description: as §1
(§4) HEK293, HeLa cell lines and fibroblasts were cultured as monolayers and maintained in Dulbecco’s modified Eagle’s medium (DMEM, Gibco BRL, Waltham, MA, USA) supplemented with 10% foetal bovine serum and 1% penicillin-streptomycin solution at 37 °C in a humidified incubator under a 5% CO2 atmosphere.
as §2, §3

[5] = test system: HeLa (cervical cancer) cells; experiment: Cytotoxicity assay (7-AAD viability, flow cytometry), HeLa; assay type: cell-based, human; details: mean ± SE, at least three experiments in duplicate, viable cells
Description: as §1, §4, §2, §3

normal human fibroblasts = experiment: Cytotoxicity assay (7-AAD viability, flow cytometry), normal fibroblasts; assay type: cell-based; details: mean ± SE, at least three experiments in duplicate
Description: as §1, §4, §2
as §3, with “Cells were treated of test compounds with six different concentrations (1, 5, 10, 15, 30 and 60 μM).” left out

[6] = Homo sapiens, HEK293, mean ± SE

SMILES: CC(=O)O[C@H]1CC[C@@]2(C)C(CC[C@]3(C)C2CCC2C4C(C(C)C)CC[C@]4(C(=O)NCCNC(=N)N)CC[C@]23C)C1(C)C (stereo partly drawn) (as salt: hydrochloride) [Compound 10b, 3β-N-(2-Ethylgyanidine)-3-O-acetyl-lupane-28-amide hydrochloride]
- melting point: 192 to 194 °C

SMILES: CC(=O)O[C@H]1CC[C@@]2(C)C(CC[C@]3(C)C2CCC2C4C(C(C)C)CC[C@]4(C(=O)NCCCN4CCN(CCCNC(=N)N)CC4)CC[C@]23C)C1(C)C (stereo partly drawn) (as salt: trifluoroacetate) [Compound 13a, 3β-N-{[3-(3-Propylguanidine)piperazinyl]propyl}-3-O-acetyl-lupane-28-amide trifluoroacetate]
- melting point: 92 to 94 °C

SMILES: CC(=O)O[C@H]1CC[C@@]2(C)C(CC[C@]3(C)C2CCC2C4C(C(C)C)CC[C@]4(C(=O)NCCN(CCNC(=N)N)CCNC(=N)N)CC[C@]23C)C1(C)C (single isomer, unassigned) (as salt: hydrochloride) [Compound 12b, 3β-N-[2-(N,N′-bis-Ethylgyanidine)-aminoethyl]-3-O-acetyl-lupane-28-amide dihydrochloride]
- melting point: 198 to 200 °C

SMILES: CC(=O)O[C@H]1CC[C@@]2(C)C(CC[C@]3(C)C2CCC2C4C(C(C)C)CC[C@]4(C(=O)NCCN(CCNC(=N)N)CCNC(=N)N)CC[C@]23C)C1(C)C (single isomer, unassigned) (as salt: trifluoroacetate) [Compound 12a, 3β-N-[2-(N,N′-bis-Ethylgyanidine)-aminoethyl]-3-O-acetyl-lupane-28-amide trifluoroacetate]
- melting point: 116 to 118 °C

SMILES: CC(=O)O[C@H]1CC[C@@]2(C)C(CC[C@]3(C)C2CC=C2C4[C@@H](C)[C@H](C)CC[C@]4(C(=O)OCC(CO)(CO)NC(=N)N)CC[C@]23C)C1(C)C (single isomer, unassigned) [Compound 18c, 3β-[2-Guanidine-3-hydroxy-2-(hydroxymethyl)propyl]-3-O-acetyl-urs-12-en-28-oate hydrochloride]
- IC50 ([1]; mean ± SE): 5.3 ± 0.29 µM
- early apoptotic cells (Q7-4) (Jurkat cells): 6.8%
- late apoptotic cells (Q7-2) (Jurkat cells): 14.3%
- necrotic cells (Q7-1) (Jurkat cells): 20.7%
- IC50 ([2]; mean ± SE): 11 ± 0.18 µM
- IC50 [3]: 3.8 ± 0.23 µM
- IC50 ([4]; mean ± SE): 14 ± 0.34 µM
- IC50 [5]: 12 ± 0.29 µM
- IC50 (normal human fibroblasts): 51 ± 0.26 µM

SMILES: CC(C)C1CC[C@]2(C(=O)NCCCCN)CC[C@]3(C)C(CCC4[C@@]5(C)CCC(=O)C(C)(C)C5CC[C@]43C)C12 (stereo partly drawn) [Compound 4, N-(4-Aminobuthyl)-3-oxolupane-28-amide]
- IC50 ([1]; Homo sapiens, U-937, mean ± SE): 1.7 ± 0.36 µM
- IC50 ([2]; Homo sapiens, K562, mean ± SE): 1.3 ± 0.49 µM
- IC50 ([3]; Homo sapiens, Jurkat): 1.4 ± 0.41 µM
- melting point: 170 to 172 °C
- IC50 [4, 6]: 2.4 ± 0.35 µM
- IC50 ([5]; Homo sapiens, HeLa): 2.8 ± 0.28 µM
- IC50 (normal human fibroblasts; Homo sapiens, Fibroblast): 3.4 ± 0.19 µM

SMILES: CC(=O)O[C@H]1CC[C@@]2(C)C(CC[C@]3(C)C2CC=C2C4CC(C)(C)CC[C@]4(C(=O)OCC(CO)(CO)NC(=N)N)CC[C@]23C)C1(C)C (stereo partly drawn) [Compound 20c, 3β-[2-Guanidine-3-hydroxy-2-(hydroxymethyl)propyl]-3-O-acetyl-olean-12-en-28-oate hydrochloride]
- IC50 ([1]; mean ± SE): 6.8 ± 0.11 µM
- living (vital) cells (Q7-3) (Jurkat cells): 78.4%
- necrotic cells (Q7-1) (Jurkat cells): 6.1%
- total number of apoptotic cells (early + late) (Jurkat cells): about 15.5%
- IC50 ([2]; mean ± SE): 13 ± 0.45 µM
- IC50 [3]: 7.6 ± 0.33 µM
- IC50 ([4]; mean ± SE): 19 ± 0.17 µM
- IC50 [5]: 17 ± 0.32 µM
- IC50 (normal human fibroblasts): 54 ± 0.12 µM

SMILES: CC(C)[C@@H]1CC[C@]2(C(=O)O)CC[C@]3(C)[C@H](CC[C@@H]4[C@@]5(C)CC[C@H](O)C(C)(C)[C@@H]5CC[C@]43C)[C@@H]12 [Dihydro BA, 20,29-dihydrobetulinic acid, reference compound]
- IC50 ([1]; Homo sapiens, U-937, mean ± SE): 39 ± 0.38 µM
- early apoptotic cells (Q7-4) (Jurkat cells): 4.0%
- late apoptotic cells (Q7-2) (Jurkat cells): 20.5%
- living (vital) cells (Q7-3) (Jurkat cells): 73.1%
- total number of apoptotic cells (early + late) (Jurkat cells): around 24%
- IC50 ([2]; Homo sapiens, K562, mean ± SE): 44 ± 0.24 µM
- IC50 ([3]; Homo sapiens, Jurkat): 59 ± 0.31 µM
- IC50 [4, 6]: 128 ± 0.32 µM
- IC50 ([5]; Homo sapiens, HeLa): 132 ± 0.47 µM
- IC50 (normal human fibroblasts; Homo sapiens, Fibroblast): 517 ± 0.26 µM
